# Data reported in patent US9796733B2, “Imidazo-pyrazine derivatives useful as soluble guanylate cyclase activators” (Merck Sharp & Dohme Corp., priority 2014, dated 2017).
# pEC50: −log10 of the molar value.
# Target: T1, sGC α1/β1 heterodimer (Homo sapiens, UniProt Q02108+Q02153)
# T1 construct: expressed in transfected cells; host or cells: CHO-K1 (clone #7, CHO-K1/sGC)
# T1 sequence (Q02108 1-690): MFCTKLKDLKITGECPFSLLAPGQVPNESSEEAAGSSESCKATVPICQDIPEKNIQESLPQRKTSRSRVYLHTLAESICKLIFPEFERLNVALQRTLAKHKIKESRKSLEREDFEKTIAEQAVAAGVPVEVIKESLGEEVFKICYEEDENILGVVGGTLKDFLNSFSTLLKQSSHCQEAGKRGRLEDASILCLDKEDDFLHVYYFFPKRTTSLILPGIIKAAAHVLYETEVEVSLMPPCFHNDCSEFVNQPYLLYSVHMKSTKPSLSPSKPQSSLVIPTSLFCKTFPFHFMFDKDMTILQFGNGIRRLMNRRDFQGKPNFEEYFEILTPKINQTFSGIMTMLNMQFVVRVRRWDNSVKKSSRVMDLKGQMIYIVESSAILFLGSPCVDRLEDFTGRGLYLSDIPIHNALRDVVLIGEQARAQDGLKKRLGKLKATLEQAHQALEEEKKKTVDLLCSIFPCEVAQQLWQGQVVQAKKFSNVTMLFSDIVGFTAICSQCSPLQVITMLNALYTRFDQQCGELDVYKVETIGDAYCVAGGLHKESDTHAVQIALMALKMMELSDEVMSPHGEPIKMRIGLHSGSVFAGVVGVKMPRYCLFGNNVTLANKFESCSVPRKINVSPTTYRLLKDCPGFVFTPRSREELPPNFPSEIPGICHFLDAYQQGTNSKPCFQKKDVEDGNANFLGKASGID
# T1 sequence (Q02153 1-619): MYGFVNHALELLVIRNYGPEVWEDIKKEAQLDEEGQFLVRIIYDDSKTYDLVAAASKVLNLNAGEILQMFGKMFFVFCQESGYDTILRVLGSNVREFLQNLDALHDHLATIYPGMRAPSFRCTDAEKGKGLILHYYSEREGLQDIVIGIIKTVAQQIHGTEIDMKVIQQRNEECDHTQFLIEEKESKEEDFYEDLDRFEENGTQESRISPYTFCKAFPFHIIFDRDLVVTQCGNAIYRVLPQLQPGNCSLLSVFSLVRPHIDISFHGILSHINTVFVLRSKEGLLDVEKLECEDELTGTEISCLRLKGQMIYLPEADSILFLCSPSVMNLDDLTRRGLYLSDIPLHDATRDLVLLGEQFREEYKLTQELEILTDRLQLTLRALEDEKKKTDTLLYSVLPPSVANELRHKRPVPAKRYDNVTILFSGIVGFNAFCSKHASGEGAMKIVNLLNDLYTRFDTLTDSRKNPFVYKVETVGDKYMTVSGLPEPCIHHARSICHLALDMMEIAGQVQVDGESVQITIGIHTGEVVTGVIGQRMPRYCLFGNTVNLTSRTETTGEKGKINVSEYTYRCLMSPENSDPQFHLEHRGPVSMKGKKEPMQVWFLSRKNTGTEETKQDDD
# Assay: Cell-based sGC functional assay (CASA assay): cGMP generation in CHO-K1/sGC cells, HTRF detection
# Settings: for Emax: CHO-K1, percent activation relative to standard Compound A in CHO-K1/sGC cells, read-out: % Act.; for pEC50: inflection point (IP) of cGMP generation in CHO-K1/sGC cells, 4P fit, activity expressed as percentage of Compound A
# Method in brief: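 cGMP was quantified by HTRF after 1 hr, 37° C exposure of thawed CHO-K1 cells expressing sGC α1/β1 to compound, with or without 1 μM DETA-NO. IBMX (0.5 mM) blocked cGMP breakdown, and DMSO was 2.5% final. Percent of standard Compound A's maximal cGMP was fitted (4P) for inflection point.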
SMILES,Emax,pEC50
"CC1(c2ccc(F)cc2)C(=O)Nc2nc(-c3cn4cc(C(F)(F)F)nc4c(CCC(F)(F)C(F)(F)F)n3)nc(N)c21 (stereo not shown) [Example 156A, 4-amino-5-(4-fluorophenyl)-5-methyl-2-(8-(3,3,4,4,4-pentafluorobutyl)-2-(trifluoromethyl)imidazo[1,2-a]pyrazin-6-yl)-5H-pyrrolo[2,3-d]pyrimidin-6(7H)-one]",92%,6.79
"CCc1cnc2c(CCC(F)(F)C(F)(F)F)nc(-c3nc(N)c4c(n3)NC(=O)C4(C)c3ccc(F)cc3)cn12 (stereo not shown) [Example 161A, 4-amino-2-(3-ethyl-8-(3,3,4,4,4-pentafluorobutyl)imidazo [1,2-a]pyrazin-6-yl)-5-(4-fluorophenyl)-5-methyl-5H-pyrrolo[2,3-d]pyrimidin-6(7H)-one]",76%,6.45
"Cc1cnc2c(Cc3ccc(F)cc3)nc(-c3nc(N)c4c(n3)NC(=O)C4(C)c3ccc(F)cn3)cn12 (stereo not shown) [Example 163B, 4-amino-2-(8-(4-fluorobenzyl)-3-methylimidazo[1,2-a]pyrazin-6-yl)-5-(5-fluoropyridin-2-yl)-5-methyl-5H-pyrrolo[2,3-d]pyrimidin-6(7H)-one]",84%,6.64
"CCCCc1nc(-c2nc(N)c3c(n2)NC(=O)C3(C)c2ccc(F)cn2)cn2cc(C)nc12 (stereo not shown) [Example 164B, 4-amino-2-(8-butyl-2-methylimidazo[1,2-a]pyrazin-6-yl)-5-(5-fluoropyridin-2-yl)-5-methyl-5H-pyrrolo[2,3-d]pyrimidin-6(7H)-one]",93%,7.09
"CCCCc1nc(-c2nc(N)c3c(n2)NC(=O)C3(C)c2ccc(C(F)(F)F)cn2)cn2c(C)cnc12 (stereo not shown) [Example 167B, 4-amino-2-(8-butyl-3-methylimidazo[1,2-a]pyrazin-6-yl)-5-methyl-5-(5-(trifluoromethyl)pyridin-2-yl)-5H-pyrrolo[2,3-d]pyrimidin-6(7H)-one]",99%,7.39
"Cc1nc2c(CCC(F)(F)C(F)(F)F)nc(-c3nc(N)c4c(n3)NC(=O)C4(C)c3ccc(F)cc3)cn2c1C (stereo not shown) [Example 177A, 4-amino-2-(2,3-dimethyl-8-(3,3,4,4,4-pentafluorobutyl)imidazo [1,2-a]pyrazin-6-yl)-5-(4-fluorophenyl)-5-methyl-5H-pyrrolo[2,3-d]pyrimidin-6(7H)-one]",107%,6.89
"CC1(c2cccc(F)c2)C(=O)Nc2nc(-c3cn4ccnc4c(CCC(F)(F)F)n3)nc(N)c21 (stereo not shown) [Example 191A, 4-amino-5-(3-fluorophenyl)-5-methyl-2-(8-(3,3,3-trifluoropropyl)imidazo[1,2-a]pyrazin-6-yl)-5H-pyrrolo[2,3-d]pyrimidin-6(7H)-one]",90%,6.89
"Nc1nc(-c2cn3ccnc3c(CCC(F)(F)F)n2)nc2c1C(c1ccc(Br)cc1)(C1CC1)C(=O)N2 (stereo not shown) [Example 200A, 4-amino-5-(4-bromophenyl)-5-cyclopropyl-2-(8-(3,3,3-trifluoropropyl)imidazo[1,2-a]pyrazin-6-yl)-5H-pyrrolo[2,3-d]pyrimidin-6(7H)-one]",96%,6.34
"CC(C)C1(c2ccc(Cl)cc2)C(=O)Nc2nc(-c3cn4ccnc4c(CCC(F)(F)F)n3)nc(N)c21 (stereo not shown) [Example 203B, 4-amino-5-(4-chlorophenyl)-5-isopropyl-2-(8-(3,3,3-trifluoropropyl)imidazo[1,2-a]pyrazin-6-yl)-5H-pyrrolo[2,3-d]pyrimidin-6(7H)-one]",115%,5.93
"CC1(c2ccc(Cl)c(F)c2)C(=O)Nc2nc(-c3cn4ccnc4c(CCCC(F)(F)F)n3)nc(N)c21 (stereo not shown) [Example 204B, 4-amino-5-(4-chloro-3-fluorophenyl)-5-methyl-2-(8-(4,4,4-trifluorobutyl)imidazo[1,2-a]pyrazin-6-yl)-5H-pyrrolo[2,3-d]pyrimidin-6(7H)-one]",110%,7.85

# The remaining compounds from weak to strong by pEC50, led by results:
Emax,pEC50,SMILES
126%,5.97,"CC1(c2ccc(Cl)cc2Cl)C(=O)Nc2nc(-c3cn4ccnc4c(CCC(F)(F)F)n3)nc(N)c21 (stereo not shown) [Example 187A, 4-amino-5-(2,4-dichlorophenyl)-5-methyl-2-(8-(3,3,3-trifluoropropyl)imidazo[1,2-a]pyrazin-6-yl)-5H-pyrrolo[2,3-d]pyrimidin-6(7H)-one]"
102%,6.01,"CCc1cn2cc(-c3nc(N)c4c(n3)NC(=O)C4(C)c3ccccc3)nc(CCC(F)(F)C(F)(F)F)c2n1 (stereo not shown) [Example 160B, 4-amino-2-(2-ethyl-8-(3,3,4,4,4-pentafluorobutyl)imidazo [1,2-a]pyrazin-6-yl)-5-methyl-5-phenyl-5H-pyrrolo[2,3-d]pyrimidin-6(7H)-one]"
168%,6.03,"COc1ccc(C2(C)C(=O)Nc3nc(-c4cn5ccnc5c(CCC(F)(F)F)n4)nc(N)c32)cc1 (stereo not shown) [Example 192B, 4-amino-5-(4-methoxyphenyl)-5-methyl-2-(8-(3,3,3-trifluoropropyl)imidazo[1,2-a]pyrazin-6-yl)-5H-pyrrolo[2,3-d]pyrimidin-6(7H)-one]"
114%,6.51,"CC1(c2cc(F)cc(F)c2)C(=O)Nc2nc(-c3cn4ccnc4c(CCC(F)(F)F)n3)nc(N)c21 (stereo not shown) [Example 195B, 4-amino-5-(3,5-difluorophenyl)-5-methyl-2-(8-(3,3,3-trifluoropropyl)imidazo[1,2-a]pyrazin-6-yl)-5H-pyrrolo[2,3-d]pyrimidin-6(7H)-one]"
109%,6.53,"CC1(c2ccccc2)C(=O)Nc2nc(-c3cn4cc(C5CC5)nc4c(CCC(F)(F)C(F)(F)F)n3)nc(N)c21 (stereo not shown) [Example 158B, 4-amino-2-(2-cyclopropyl-8-(3,3,4,4,4-pentafluorobutyl)imidazo [1,2-a]pyrazin-6-yl)-5-methyl-5-phenyl-5H-pyrrolo[2,3-d]pyrimidin-6(7H)-one]"
106%,6.57,"CC1(c2ccc(OC(F)(F)F)cc2)C(=O)Nc2nc(-c3cn4ccnc4c(CCC(F)(F)F)n3)nc(N)c21 (stereo not shown) [Example 196B, 4-amino-5-methyl-5-(4-(trifluoromethoxy)phenyl)-2-(8-(3,3,3-trifluoropropyl)imidazo[1,2-a]pyrazin-6-yl)-5H-pyrrolo[2,3-d]pyrimidin-6(7H)-one]"
88%,6.77,"Cc1cn2cc(-c3nc(N)c4c(n3)NC(=O)C4(C)c3ccc(F)cn3)nc(Cc3ccc(F)cc3)c2n1 (stereo not shown) [Example 162B, 4-amino-2-(8-(4-fluorobenzyl)-2-methylimidazo[1,2-a]pyrazin-6-yl)-5-(5-fluoropyridin-2-yl)-5-methyl-5H-pyrrolo[2,3-d]pyrimidin-6(7H)-one]"
81%,7.37,"CCCCc1nc(-c2nc(N)c3c(n2)NC(=O)C3(C)c2ccc(F)cn2)cn2c(C)cnc12 (stereo not shown) [Example 165B, 4-amino-2-(8-butyl-3-methylimidazo[1,2-a]pyrazin-6-yl)-5-(5-fluoropyridin-2-yl)-5-methyl-5H-pyrrolo[2,3-d]pyrimidin-6(7H)-one]"
115%,7.41,"CC1(c2ccc(F)cc2F)C(=O)Nc2nc(-c3cn4ccnc4c(CCC(F)(F)F)n3)nc(N)c21 (stereo not shown) [Example 180A, 4-amino-5-(2,4-difluorophenyl)-5-methyl-2-(8-(3,3,3-trifluoropropyl)imidazo[1,2-a]pyrazin-6-yl)-5H-pyrrolo[2,3-d]pyrimidin-6(7H)-one]"
75%,7.72,"CCCCc1nc(-c2nc(N)c3c(n2)NC(=O)C3(C)c2ccc(Cl)cn2)cn2c(C)cnc12 (stereo not shown) [Example 169A, 4-amino-2-(8-butyl-3-methylimidazo[1,2-a]pyrazin-6-yl)-5-(5-chloropyridin-2-yl)-5-methyl-5H-pyrrolo[2,3-d]pyrimidin-6(7H)-one]"
